Calls of active or inactive are those of the source. The calls are words filed in the database; no cut-off is given here.
Tests used:
[1] = target: T1, Acetylcholinesterase (Bos taurus, UniProt P23795)
T1 sequence (P23795 whole entry): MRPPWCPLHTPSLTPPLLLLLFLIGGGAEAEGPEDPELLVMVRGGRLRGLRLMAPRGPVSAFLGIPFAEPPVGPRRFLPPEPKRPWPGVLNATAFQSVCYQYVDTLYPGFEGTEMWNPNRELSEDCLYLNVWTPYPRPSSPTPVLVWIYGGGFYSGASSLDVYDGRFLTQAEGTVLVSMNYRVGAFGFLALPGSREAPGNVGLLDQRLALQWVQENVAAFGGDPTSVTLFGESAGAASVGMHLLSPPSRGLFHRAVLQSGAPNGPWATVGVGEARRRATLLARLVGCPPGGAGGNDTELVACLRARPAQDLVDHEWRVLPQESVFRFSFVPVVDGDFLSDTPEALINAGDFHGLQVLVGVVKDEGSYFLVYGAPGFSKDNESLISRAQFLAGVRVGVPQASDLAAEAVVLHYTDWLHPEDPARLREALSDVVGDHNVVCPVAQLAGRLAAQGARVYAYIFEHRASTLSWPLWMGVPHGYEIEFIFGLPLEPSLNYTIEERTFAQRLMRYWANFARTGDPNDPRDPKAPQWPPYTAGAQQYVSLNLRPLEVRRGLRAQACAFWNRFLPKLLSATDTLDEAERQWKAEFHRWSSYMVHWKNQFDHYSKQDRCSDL
Description: Inhibition of bovine erythrocyte AChE by Ellman's reaction

[2] = target: Acetylcholinesterase (Homo sapiens, UniProt P22303)
Description: Inhibition of human erythrocyte AChE by Ellman's reaction

[3] = Permeability by PAMPA method; assay type: ADME; conditions: read-out: permeability
[4] = target: Cholinesterase (Equus caballus, UniProt P81908)
Description: Inhibition of horse serum BChE by Ellman's reaction

[5] = target: Cholinesterase (Homo sapiens, UniProt P06276)
Description: Inhibition of human serum BChE by Ellman's reaction

[6] = system: SH-SY5Y; experiment: Neuroprotective activity against rotenone-induced cell death in human SH-SY5Y cells assessed as lactate dehydrogenase release at 3 uM after 24 hrs; assay type: functional
[7] = Metal chelating activity assessed as formation of copper complex in Tris buffer at pH 7.4 at 22.5 uM by UV-vis spectrometry; assay type: functional
[8] = Metal chelating activity assessed as formation of copper complex in Tris buffer at pH 7.4 at 22.5 uM after 1 min by UV-vis spectrometry; assay type: functional
[9] = system: SH-SY5Y; experiment: Cytotoxicity against human SH-SY5Y cells assessed as lactate dehydrogenase release at 3 uM after 24 hrs; assay type: cell-based
[10] = Metal chelating activity assessed as formation of iron complex in Tris buffer at pH 7.4 at 22.5 uM after 30 mins by UV-vis spectrometry; assay type: functional

Cholinesterase (Homo sapiens, UniProt P06276), sequence (P06276 whole entry): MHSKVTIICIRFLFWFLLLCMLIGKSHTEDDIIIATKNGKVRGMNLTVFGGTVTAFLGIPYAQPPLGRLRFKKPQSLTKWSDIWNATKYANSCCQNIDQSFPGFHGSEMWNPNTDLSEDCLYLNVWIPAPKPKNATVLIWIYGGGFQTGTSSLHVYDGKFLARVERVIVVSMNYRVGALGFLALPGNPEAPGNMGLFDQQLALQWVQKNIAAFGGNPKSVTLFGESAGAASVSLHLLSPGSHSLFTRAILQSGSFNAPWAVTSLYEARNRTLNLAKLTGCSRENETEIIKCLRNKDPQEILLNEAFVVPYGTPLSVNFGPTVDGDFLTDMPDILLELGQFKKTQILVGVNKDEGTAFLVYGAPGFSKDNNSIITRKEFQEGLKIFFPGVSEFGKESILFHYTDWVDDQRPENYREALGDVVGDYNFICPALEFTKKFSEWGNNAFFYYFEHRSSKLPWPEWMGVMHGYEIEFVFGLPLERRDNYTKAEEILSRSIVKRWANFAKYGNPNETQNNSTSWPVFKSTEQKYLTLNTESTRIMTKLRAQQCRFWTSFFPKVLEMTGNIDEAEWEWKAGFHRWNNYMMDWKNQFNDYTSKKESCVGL
Acetylcholinesterase (Homo sapiens, UniProt P22303), sequence (P22303 whole entry): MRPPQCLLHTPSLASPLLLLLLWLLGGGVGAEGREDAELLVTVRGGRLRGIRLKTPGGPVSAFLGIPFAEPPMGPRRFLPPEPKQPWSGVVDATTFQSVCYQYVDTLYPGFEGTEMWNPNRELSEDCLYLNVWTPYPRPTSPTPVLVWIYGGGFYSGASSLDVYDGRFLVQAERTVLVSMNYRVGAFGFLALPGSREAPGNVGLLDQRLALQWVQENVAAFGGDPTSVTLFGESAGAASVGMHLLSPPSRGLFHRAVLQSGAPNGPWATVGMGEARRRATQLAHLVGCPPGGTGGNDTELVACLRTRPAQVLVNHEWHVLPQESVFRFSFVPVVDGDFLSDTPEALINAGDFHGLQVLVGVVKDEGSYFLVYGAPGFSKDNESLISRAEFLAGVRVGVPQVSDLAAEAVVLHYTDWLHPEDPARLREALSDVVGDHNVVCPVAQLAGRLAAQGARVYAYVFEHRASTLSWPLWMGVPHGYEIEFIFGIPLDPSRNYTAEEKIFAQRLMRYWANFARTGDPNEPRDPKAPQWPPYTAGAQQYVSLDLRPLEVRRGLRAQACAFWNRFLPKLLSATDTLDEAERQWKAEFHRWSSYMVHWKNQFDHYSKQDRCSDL
Cholinesterase (Equus caballus, UniProt P81908), sequence (P81908 whole entry): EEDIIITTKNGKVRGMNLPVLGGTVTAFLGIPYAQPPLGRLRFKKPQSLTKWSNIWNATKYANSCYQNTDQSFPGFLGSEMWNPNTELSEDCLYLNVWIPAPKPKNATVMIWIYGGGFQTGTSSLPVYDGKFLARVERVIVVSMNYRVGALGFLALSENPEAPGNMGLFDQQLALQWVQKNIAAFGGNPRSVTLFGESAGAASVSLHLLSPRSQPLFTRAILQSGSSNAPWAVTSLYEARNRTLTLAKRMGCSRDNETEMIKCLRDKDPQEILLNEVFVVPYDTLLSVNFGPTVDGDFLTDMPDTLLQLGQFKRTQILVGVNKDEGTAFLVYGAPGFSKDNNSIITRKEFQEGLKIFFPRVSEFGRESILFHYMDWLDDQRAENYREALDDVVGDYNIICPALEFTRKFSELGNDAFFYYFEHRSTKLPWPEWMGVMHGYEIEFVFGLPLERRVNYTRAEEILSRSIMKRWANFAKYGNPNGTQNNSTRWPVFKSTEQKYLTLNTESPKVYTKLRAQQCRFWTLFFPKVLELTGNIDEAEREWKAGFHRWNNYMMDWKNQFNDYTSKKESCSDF

## Cl.Cl.Cl.Oc1c(CNCCCCCCCCCNc2c3c(nc4ccccc24)CCCC3)cc(Cl)c2cccnc12
[1]
  IC50: 85 nM
[2]
  IC50: 1 nM
[3]
  Papp: 10 ×10⁻⁶ cm/s
[4]
  IC50: 6.5 nM
[5]
  IC50: 55 nM

## Cl.Cl.Oc1c(CNCCCCCCCCCNc2c3c(nc4ccccc24)CCCC3)ccc2cccnc12
[6]
  Activity: 30%
[7]
  Activity: Active
[1]
  IC50: 20 nM
[8]
  Activity: inactive
[9]
  Activity: Toxic
[10]
  Activity: inactive
[2]
  IC50: 5.5 nM
[3]
  Papp: 17.4 ×10⁻⁶ cm/s
[4]
  IC50: 5 nM
[5]
  IC50: 20 nM

## CN(CCCNCc1ccc2cccnc2c1O)CCCNc1c2c(nc3ccccc13)CCCC2
[1]
  IC50: 80 nM
[4]
  IC50: 50 nM

## Cc1ccc2ccc(CNCCCN(C)CCCNc3c4c(nc5ccccc35)CCCC4)c(O)c2n1
[1]
  IC50: 200 nM

## Oc1c(CNCCCCCCCCCCNc2c3c(nc4ccccc24)CCCC3)cc(Cl)c2cccnc12
[1]
  IC50: 100 nM

## Cc1ccc2ccc(CNCCCCCCCCNc3c4c(nc5ccccc35)CCCC4)c(O)c2n1.Cl.Cl
[1]
  IC50: 75 nM
[2]
  IC50: 0.5 nM
[3]
  Papp: 14.1 ×10⁻⁶ cm/s
[4]
  IC50: 2 nM
[5]
  IC50: 6.5 nM

## Oc1c(CNCCCCCCCCCCCCNc2c3c(nc4ccccc24)CCCC3)ccc2cccnc12
[1]
  IC50: 250 nM

## Cc1ccc2ccc(CNCCCCCCCCCCNc3c4c(nc5ccccc35)CCCC4)c(O)c2n1
[1]
  IC50: 70 nM
[4]
  IC50: 7 nM

## Cc1ccc2ccc(CNCCCCCCCCCNc3c4c(nc5ccccc35)CCCC4)c(O)c2n1
[1]
  IC50: 100 nM

## Oc1cccc2cccnc12 [OXYQUINOLINE]
[2]
  IC50: > 100 nM
[5]
  IC50: > 100 nM

## CN(CCCNCc1cc(Cl)c2cccnc2c1O)CCCNc1c2c(nc3ccccc13)CCCC2
[1]
  IC50: 90 nM
[4]
  IC50: 30 nM

## Cc1ccc2ccc(CNCCCCCCCNc3c4c(nc5ccccc35)CCCC4)c(O)c2n1
[1]
  IC50: 200 nM

## Oc1c(CNCCCCCCCNc2c3c(nc4ccccc24)CCCC3)ccc2cccnc12
[1]
  IC50: 25 nM
[4]
  IC50: 150 nM

## Oc1c(CNCCCCCCCCCCNc2c3c(nc4ccccc24)CCCC3)ccc2cccnc12
[1]
  IC50: 50 nM
[4]
  IC50: 65 nM

## Oc1c(CNCCCCCCNc2c3c(nc4ccccc24)CCCC3)ccc2cccnc12
[1]
  IC50: 200 nM

## Oc1c(CNCCCCCCCCNc2c3c(nc4ccccc24)CCCC3)ccc2cccnc12
[1]
  IC50: 90 nM
[4]
  IC50: 30 nM

## Oc1c(CNCCCCCCCCCCCCNc2c3c(nc4ccccc24)CCCC3)cc(Cl)c2cccnc12
[1]
  IC50: 400 nM

## Oc1c(CNCCCCCCCCNc2c3c(nc4ccccc24)CCCC3)cc(Cl)c2cccnc12
[1]
  IC50: 150 nM
